Reference: publication PMC11843629, “Development of ketobenzothiazole-based peptidomimetic TMPRSS13 inhibitors with low nanomolar potency” (Journal of Enzyme Inhibition and Medicinal Chemistry, 2025)
Residue numbers refer to the chain shown, from its start. Where two headings read alike, the source gives them in different places.

What was measured:
WT TMPRSS13 = biological target: T1, WT TMPRSS13 (Homo sapiens, UniProt Q9BYE2); test: In cellulo inhibitory activity in TMPRSS13-transfected Vero cells; type: cell-based; details: 24 h; for IC50: Boc-RVRR-AMC, read-out: IC50 in cellulo TMPRSS13 inhibition; for remaining activity at 10 µM: 10 µM compound, media, relative to DMSO, read-out: residual activity of TMPRSS13
T1 construct: the full length TMPRSS13 (TMPRSS13-WT); expressed in transfected cells; host or cells: Vero C1008 (Vero E6) cells
T1 sequence (Q9BYE2 326-567 isoform Q9BYE2-6 limits assumed): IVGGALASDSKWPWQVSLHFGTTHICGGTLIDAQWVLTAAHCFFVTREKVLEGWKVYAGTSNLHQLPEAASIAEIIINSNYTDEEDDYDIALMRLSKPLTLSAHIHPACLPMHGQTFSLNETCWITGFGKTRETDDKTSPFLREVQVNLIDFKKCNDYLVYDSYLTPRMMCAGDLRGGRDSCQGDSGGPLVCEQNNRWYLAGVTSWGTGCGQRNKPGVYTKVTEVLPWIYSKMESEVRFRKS
Method: Vero C1008 cells were grown in 12-well plates (200K cells per well) and transfected for 24 h via Lipofectamine 3000 (Life Technologies) with one of the following plasmids: pcDNA3.1 (empty vector, EV), pcDNA3.1-TMPRSS13 WT or pcDNA3.1-TMPRSS13-AFAAS-6His. The cells were then washed 2 times with PBS before HCell-100 medium (Wisent) containing the indicated concentrations of each compound or the control condition (0.01% DMSO) was added. After 24 h of incubation with the compounds, the medium was harvested, and 90 μL was placed in 96-well plate wells with 10 µL of 200 μM Boc-RVRR-AMC. Fluorescence was acquired at room temperature in an FLx800 TBE microplate reader, with excitation at 360 nm and emission at 460 nm. The background was then subtracted by removing the signal recorded with the cells transfected with the empty vector (pcDNA3.1). Proteolytic activity results are represented as a percentage of the DMSO-treated condition. The IC50 was calculated via nonlinear regression of the compound concentration relative to the velocity.

TMPRSS13 = biological target: T2, TMPRSS13 (Homo sapiens, UniProt Q9BYE2, K566A/R563A/R565A); test: In vitro inhibition assay, recombinant TMPRSS13-AFAAS-6His, Boc-RVRR-AMC; type: biochemical; details: dose-response curve, Cheng-Prusoff equation
T2 construct: Shedding of the TMPRSS13 catalytic domain was detected for both constructs in the cell media; made in house; host or cells: Expi293F cells
T2 sequence (Q9BYE2 with tags, fused parts or gaps isoform Q9BYE2-6 limits assumed): T1 sequence (Q9BYE2 326-567 isoform Q9BYE2-6 limits assumed) with R238A, R240A, K241A
Method: TMPRSS13-AFAAS-6His was expressed via the Expi293 Expression System Kit (Thermo Fisher Scientific, A14635) according to the manufacturer’s instructions and purified via IMAC chromatography. Briefly, Expi293F cells were transfected for 48 h with the TMPRSS13-AFAAS-6His construct, and media containing the shed recombinant protease was injected on a HisTrap Excel column (Cytiva, 17371206) via an ÄKTA Start protein purification system (Cytiva). The bound proteins were then eluted (20 mM sodium phosphate pH 7.4, 500 mM NaCl, and 500 mM imidazole), and the TMPRSS13-containing fractions were dialysed for 16 h at 4 °C in storage buffer (20 mM sodium phosphate pH 7.4, 150 mM NaCl, and 10% glycerol). Proteins were then concentrated via a 10 kDa Amicon Ultra centrifugal filter (Millipore Sigma, UFC8010) and stored at −80 °C.
(§1) Recombinant TMPRSS13-AFAAS-6His (this study) and matriptase[34] were expressed and purified as described. Recombinant human furin, Factor Xa (R&D Systems) and thrombin (MilliporeSigma) were obtained from commercial sources. Assays were performed in a buffer composed of 50 mM HEPES pH 7.4, 1 mM β-mercaptoethanol, 1 mM CaCl2 and 500 μg/ml BSA for furin and 50 mM HEPES pH 7.4, 150 mM NaCl and 0.1% BSA for other proteases. Assays were performed at room temperature using fluorogenic substrates (Boc-RVRR-AMC for furin and TMPRSS13, Boc-QAR-AMC for other proteases). The enzymatic activity was measured via fluorescence (excitation at 360 nm and emission at 460 nm) at room temperature using an HTX Synergy microplate reader (Agilent). Kis for TMPRSS13 and Factor Xa (FXa) were derived from IC50 dose–response curves using the Cheng-Prusoff equation[35] for reversible competitive inhibitors. For matripase, a plot of the enzyme velocity as a function of the inhibitor concentration was fitted with nonlinear regression analysis via the Morrison Ki equation[36] for competitive tight-binding inhibitors.

Factor Xa = biological target: T3, Factor Xa (Homo sapiens, UniProt P00742); test: In vitro inhibition assay, Factor Xa, Boc-QAR-AMC; type: biochemical; details: Cheng-Prusoff equation
T3 construct: purchased R&D Systems
Method: as §1

in vitro = details: final conc. 0.2 mM, 37 °C; for half-life at 0.2 mM: male, Sprague-Dawley, rat, pooled rat plasma (K2EDTA), Mean half-life, Plasma
Excerpt: Adult male Sprague-Dawley rats, weighing between 225 and 300 g (Charles River Laboratories, St. Constant, Canada), were housed in groups of four per double-decker cage on Aspen shavings in a quiet environment. They were maintained under a 12-h light/dark cycle with unrestricted access to food and water. All experimental protocols received approval from the Animal Care Committee of the Université de Sherbrooke, adhering to the Canadian Council on Animal Care guidelines. The procedures also followed the ARRIVE guidelines (Animals in Research: Reporting In Vivo Experiments) and the United States NIH regulations (Ethics approval ID: 2022–3440). To evaluate the stability of compounds in plasma, 6 rats were anaesthetised with 2 L/min oxygen and 5% isoflurane, after which plasma was collected, pooled, and stored frozen until experiments were performed.
For evaluating plasma stability, rats were anaesthetised using a flow of 2 L/min of oxygen combined with 5% isoflurane. Blood was obtained via cardiac puncture from the left ventricle using a 20 G ½ needle, collected in pre-chilled Vacutainer K2EDTA tubes (367861), and maintained on wet ice. The blood was then centrifuged at 2000 xG for 15 min at 4 °C. Plasma samples were pooled from six rats, aliquoted, and stored at −80 °C. […] To terminate the reaction, 140 μL of a 1:1 acetonitrile-ethanol solution containing 0.25 mM N,N-dimethylbenzamide (used as an internal standard) was added. The resulting mixture was transferred onto an Impact Protein Precipitation filter plate (Phenomenex, California), with a 96-well UPLC plate positioned below to collect the filtrates. Both plates were centrifuged at 500 × g for 10 min at 4 °C. The filtrates were diluted with 30 μL of distilled water before analysis using an Acquity UPLC-MS system class H (column Acquity UPLC protein BEH C18 (2.1 mm × 50 mm), 1.7 μm particles, 130 Å pore size). The peptide’s half-life was determined from the degradation profile utilising the exponential one-phase decay function in GraphPad Prism 9. Mass spectra obtained at time points close to the calculated half-life were compared with those at 0 min (plasma inactivated prior to compound addition) to identify cleavage fragments.

T3 sequence (P00742 235-488 limits assumed): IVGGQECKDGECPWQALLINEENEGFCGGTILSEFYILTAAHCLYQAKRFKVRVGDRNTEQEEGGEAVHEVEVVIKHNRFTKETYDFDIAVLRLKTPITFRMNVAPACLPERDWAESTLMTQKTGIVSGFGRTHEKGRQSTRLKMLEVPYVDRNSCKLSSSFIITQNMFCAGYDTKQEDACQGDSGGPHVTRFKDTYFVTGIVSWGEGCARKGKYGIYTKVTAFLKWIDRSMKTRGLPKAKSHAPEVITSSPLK
T3 sequence (P00742 41-179 partner limits assumed): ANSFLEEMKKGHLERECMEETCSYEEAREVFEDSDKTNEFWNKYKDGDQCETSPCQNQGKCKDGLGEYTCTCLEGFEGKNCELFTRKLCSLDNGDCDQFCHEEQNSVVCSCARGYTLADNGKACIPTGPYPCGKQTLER

## N=C(N)NCCCCC(=O)N[C@@H](CCC(N)=O)C(=O)N[C@@H](CCc1ccccc1)C(=O)N[C@@H](CCCNC(=N)N)C(=O)c1nc2ccccc2s1 [Compound N-0430, (H)-RQhFR-Kbt]
WT TMPRSS13
  IC50: 0.053 µM
WT TMPRSS13; Vero
  remaining activity at 10 µM: 9%
TMPRSS13
  Ki: 0.0053 µM
Factor Xa
  Ki: 0.0569 ± 0.009 µM
In vitro
  half-life at 0.2 mM: 40.8 h

## N=C(N)NCCCCC(=O)N[C@@H](CCC(N)=O)C(=O)N[C@@H](Cc1ccccc1)C(=O)N[C@@H](CCCNC(=N)N)C(=O)c1nc2ccccc2s1 [Compound N-0130, (H)-RQFR-Kbt]
WT TMPRSS13
  remaining activity at 10 µM: 18.4%
  IC50: 0.192 µM
TMPRSS13
  Ki: 0.0246 µM
Factor Xa
  Ki: 0.0482 ± 0.0037 µM
In vitro
  half-life at 0.2 mM: 79.2 h
In vitro; rat plasma (male)
  Mean half-life, Plasma: 78.5 h
